inhibition, IC50 and Ratio IC50 data for two molecules are collected here from ChEMBL document CHEMBL1137750, “Synthesis and biological evaluation of 4,5-diphenyloxazolone derivatives on route towards selective COX-2 inhibitors” (Eur J Med Chem, 2009).

Bounds are passed on as bounds.

Assay [1] has as its target T1, Prostaglandin G/H synthase 1 (Ovis aries) (UniProt P05979).
T1 sequence (whole entry): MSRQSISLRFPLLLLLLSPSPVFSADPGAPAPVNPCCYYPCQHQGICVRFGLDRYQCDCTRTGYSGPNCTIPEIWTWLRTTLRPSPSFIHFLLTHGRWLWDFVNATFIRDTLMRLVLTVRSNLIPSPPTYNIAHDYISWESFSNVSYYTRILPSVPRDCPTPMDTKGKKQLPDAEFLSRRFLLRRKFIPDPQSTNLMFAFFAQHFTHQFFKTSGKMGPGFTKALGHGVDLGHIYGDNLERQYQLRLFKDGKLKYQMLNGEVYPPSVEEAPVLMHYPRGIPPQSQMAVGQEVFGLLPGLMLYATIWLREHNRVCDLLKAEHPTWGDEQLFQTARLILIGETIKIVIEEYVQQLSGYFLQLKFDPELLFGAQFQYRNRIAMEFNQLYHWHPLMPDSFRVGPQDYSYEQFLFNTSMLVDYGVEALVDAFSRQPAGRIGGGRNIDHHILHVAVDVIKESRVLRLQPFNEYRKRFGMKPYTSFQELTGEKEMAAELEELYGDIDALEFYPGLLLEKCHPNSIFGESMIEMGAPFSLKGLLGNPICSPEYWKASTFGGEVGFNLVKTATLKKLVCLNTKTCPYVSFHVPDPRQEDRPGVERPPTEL
In words: Inhibition of ovine COX1 at 10 uM by enzyme immunoassay relative to control.

Assay [2] has as its target T1, Prostaglandin G/H synthase 1 (Ovis aries). In words: Inhibition of ovine COX1 at 100 uM by enzyme immunoassay relative to control.
Assay [3] has as its target T2, Prostaglandin G/H synthase 1 (Ovis aries, UniProt P05979).
T2 sequence (P05979 whole entry): T1 sequence (whole entry)
In words: Inhibition of ovine COX1 by enzyme immunoassay.

The species named for the next assay is Ovis aries. Nature of the assay: Selectivity index, raio of IC50 for ovine COX1 to IC50 for ovine COX2.
The target in assay [4] is T3, Prostaglandin G/H synthase 2 (Homo sapiens) (UniProt P35354).
T3 sequence (whole entry): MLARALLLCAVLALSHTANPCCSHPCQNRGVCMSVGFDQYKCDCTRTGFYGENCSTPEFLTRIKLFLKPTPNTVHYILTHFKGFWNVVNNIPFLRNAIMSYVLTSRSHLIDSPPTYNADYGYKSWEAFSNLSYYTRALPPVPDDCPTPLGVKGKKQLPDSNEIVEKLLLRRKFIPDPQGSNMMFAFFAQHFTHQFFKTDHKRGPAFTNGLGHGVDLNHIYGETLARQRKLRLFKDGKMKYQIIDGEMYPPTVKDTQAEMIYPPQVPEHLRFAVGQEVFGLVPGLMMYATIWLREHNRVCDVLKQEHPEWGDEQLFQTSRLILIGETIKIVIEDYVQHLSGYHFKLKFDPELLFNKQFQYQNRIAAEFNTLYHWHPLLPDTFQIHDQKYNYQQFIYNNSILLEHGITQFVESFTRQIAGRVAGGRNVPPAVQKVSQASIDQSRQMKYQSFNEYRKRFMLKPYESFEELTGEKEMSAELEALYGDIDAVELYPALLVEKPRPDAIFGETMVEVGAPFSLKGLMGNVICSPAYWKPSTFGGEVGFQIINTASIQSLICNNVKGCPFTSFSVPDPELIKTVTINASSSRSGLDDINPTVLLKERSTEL
In words: Inhibition of COX2 in LPS-stimulated human whole blood assessed as PGE2 production by enzyme immunoassay. The assay is classed as tissue-based. Conditions: concentration not given here.

In assay [5] the target is Prostaglandin G/H synthase 1 (Homo sapiens) (UniProt P23219). In words: Inhibition of COX1 in human whole blood assessed as TXB2 production at 10 uM by enzyme immunoassay.
Prostaglandin G/H synthase 1 (Homo sapiens), sequence (P23219 whole entry): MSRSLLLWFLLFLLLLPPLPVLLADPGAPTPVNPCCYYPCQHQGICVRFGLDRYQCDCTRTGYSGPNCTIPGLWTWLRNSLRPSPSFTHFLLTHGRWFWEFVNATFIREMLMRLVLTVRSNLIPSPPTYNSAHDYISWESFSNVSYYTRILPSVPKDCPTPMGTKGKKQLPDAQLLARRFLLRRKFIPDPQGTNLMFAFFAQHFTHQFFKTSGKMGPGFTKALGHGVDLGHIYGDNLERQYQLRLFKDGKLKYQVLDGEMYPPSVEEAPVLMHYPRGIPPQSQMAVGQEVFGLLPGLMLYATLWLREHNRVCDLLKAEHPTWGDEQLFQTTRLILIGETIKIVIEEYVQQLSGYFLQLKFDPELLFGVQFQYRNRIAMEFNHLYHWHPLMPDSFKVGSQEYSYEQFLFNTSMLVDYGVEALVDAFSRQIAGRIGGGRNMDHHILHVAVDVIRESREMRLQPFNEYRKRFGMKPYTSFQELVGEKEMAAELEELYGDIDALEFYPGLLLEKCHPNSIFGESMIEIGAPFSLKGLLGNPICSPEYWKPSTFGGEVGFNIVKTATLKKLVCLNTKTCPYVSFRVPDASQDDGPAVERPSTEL

The term inhibition denotes how much of the control response was suppressed. Regarding `COc1ccc2c(c1)c(CC(=O)O)c(C)n2C(=O)c1ccc(Cl)cc1`, the inhibition in assay [1] worked out at 71.9%.
Usually IC50 stands for the concentration at which inhibition is half-maximal. Read a low IC50 as inhibition by little substance. Turning to `Cn1c(-c2ccccc2)c(-c2ccc(S(N)(=O)=O)cc2)oc1=O`, the inhibition in assay [1] was 3.56%; in assay [2] it was 19.3%; in assay [4], 85%; in assay [5] it was 7%. Further, the IC50 in assay [3] was greater than 100 µM. In the assay filed under Ovis aries, the Ratio IC50 was greater than 50.
